{"source": "patent US7598046B2", "about": "(priority 2003, dated 2009)", "test_system": "PrP^Sc (conversion of PrP^C into PrP^Sc)", "assay_type": "biochemical, hamster", "conditions": "for prion replication in vitro (PMCA signal): 30 min at 4° C., without cyclodextrin, 3200-fold and 12800-fold dilutions of scrapie brain homogenate", "note": "Read-outs that look alike come from different tables or passages of the source.", "data": [{"substance": "methyl-β-cyclodextrin", "values": [{"measurement": "prion replication (PrP^Sc signal after PMCA): complete inhibition observed or not", "setting": "5 mM methyl-β-cyclodextrin, normal brain homogenate treated 30 min, 10 cycles of PMCA, Western blot after PK", "value": "not"}, {"measurement": "prion replication (PrP^Sc signal after PMCA)", "setting": "10 mM methyl-β-cyclodextrin, normal brain homogenate treated 30 min, 10 cycles of PMCA, Western blot after PK", "value": "complete inhibition"}, {"measurement": "prion replication (PrP^Sc signal after PMCA)", "setting": "20 mM methyl-β-cyclodextrin, normal brain homogenate treated 30 min, 10 cycles of PMCA, Western blot after PK", "value": "complete inhibition"}]}, {"substance": "Apolipoprotein E", "values": [{"measurement": "prion replication in vitro (PMCA signal)", "setting": "1 and 10 μg hApo E", "value": "increase"}]}, {"substance": "Apolipoprotein B", "values": [{"measurement": "prion replication in vitro (PMCA signal)", "setting": "8 and 16 μg hApo B", "value": "increase"}]}]}
